# Laboratory results: US20230151014A1 (Repare Therapeutics Inc., priority 2020, published 2023)
# Target: T1, recombinant human Myt1 (Homo sapiens, UniProt Q99640)
# T1 construct: full length PKMYT1 recombinant human protein expressed in insect cells
# T1 sequence (Q99640 1-499): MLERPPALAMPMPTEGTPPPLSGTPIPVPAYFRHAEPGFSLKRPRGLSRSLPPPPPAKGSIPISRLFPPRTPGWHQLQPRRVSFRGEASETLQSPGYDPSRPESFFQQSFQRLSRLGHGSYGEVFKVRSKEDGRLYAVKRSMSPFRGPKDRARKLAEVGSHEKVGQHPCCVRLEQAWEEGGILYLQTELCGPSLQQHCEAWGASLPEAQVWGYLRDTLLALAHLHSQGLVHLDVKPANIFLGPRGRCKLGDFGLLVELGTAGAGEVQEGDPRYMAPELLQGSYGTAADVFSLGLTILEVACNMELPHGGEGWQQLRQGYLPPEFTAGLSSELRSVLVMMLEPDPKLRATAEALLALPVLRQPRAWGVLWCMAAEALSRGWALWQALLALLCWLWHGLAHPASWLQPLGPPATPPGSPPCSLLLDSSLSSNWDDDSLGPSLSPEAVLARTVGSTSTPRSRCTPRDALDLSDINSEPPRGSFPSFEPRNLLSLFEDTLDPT
# Experiment: Myt1 enzymatic assay (ADP-Glo kinase assay, IC50 and % max inhibition)
# Format: biochemical
# Conditions: recombinant human Myt1 18 nM, ATP 10 μM
# Method: Detection of Myt1 kinase activity utilized a recombinant human Myt1 kinase assay measuring the hydrolysis of ATP using a commercially available ADP-Glo Assay (ADP-Glo™ Kinase Assay from Promega, 10 000 assays, #V9102). […] After this, 5 μL of compounds (diluted in reaction buffer to 0.5% DMSO) was added to the microplate and the plate was spun briefly and incubated at 22° C. for 15 minutes. Ultra-Pure Adenosine Triphosphate (ATP) solution (ADP-Glo kit from Promega) was diluted in reaction buffer and 5 μL was added to the microplate, spun down briefly and incubated for 60 minutes at 30° C. […] After the 60-minute incubation, 15 μL of ADP-Glo reagent was added and the plate was spun briefly and sealed and incubated in the dark for 40 minutes at 22° C. […] Luminescence was read using the Envision (250 ms integration). The IC50 and the % max inhibition were calculated for each inhibitor compound tested.
row,SMILES,IC50
1,"C=Cc1nc2c(C(N)=O)c(N)n(-c3c(C)ccc(O)c3C)c2nc1C(F)(F)F [Compound 102, 6-amino-5-(3-hydroxy-2,6-dimethyl-phenyl)-3-(trifluoromethyl)-2-vinyl-pyrrolo[2,3-b]pyrazine-7-carboxamide]",13 nM
2,Cc1ccc(O)c(Cl)c1-n1c(N)c(C(N)=O)c2nc(C3CC3)cnc21 [Compound 104],< 10 nM
3,CCCCc1cnc2c(n1)c(C(N)=O)c(N)n2-c1c(Cl)ccc(O)c1C [Compound 107],12 nM
4,Cc1ccc(O)c(C)c1-n1c(N)c(C(N)=O)c2c(C)c(C)cnc21 [Compound 125],16 nM
5,Cc1ccc(O)c(C)c1-n1c(N)c(C(N)=O)c2cc(C(C)(C)O)cnc21 [Compound 131],< 10 nM
6,Cc1ccc(O)c(C)c1-n1c(N)c(C(N)=O)c2cc(C(C)C)cnc21 [Compound 138],< 10 nM
7,Cc1ccc(O)c(C)c1-n1c(N)c(C(N)=O)c2cc(Br)cnc21 [Compound 141],< 10 nM
8,Cc1ccc(O)c(C)c1-n1cc(C(N)=O)c2cc(C3CC3)cnc21 [Compound 143],< 10 nM
9,Cc1ccc(O)c(C)c1-n1c(N)c(C(N)=O)c2nccnc21 [Compound 147],55 nM
10,Cc1nc2c(C(N)=O)c(N)n(-c3c(Cl)ccc(O)c3C)c2nc1C [Compound 168],< 10 nM
11,"Cc1ccc(O)c(C)c1-n1c(N)c(C(N)=O)c2nc(C3CCC3)cnc21 [Compound 173, 6-amino-2-cyclobutyl-5-(3-hydroxy-2,6-dimethyl-phenyl)pyrrolo[2,3-b]pyrazine-7-carboxamide]",< 10 nM
12,"Cc1ccc(O)c(C)c1-n1c(N)c(C(N)=O)c2nc(C(C)(C)F)cnc21 [Compound 178, 6-amino-2-(1-fluoro-1-methyl-ethyl)-5-(3-hydroxy-2,6-dimethyl-phenyl)pyrrolo[2,3-b]pyrazine-7-carboxamide]",< 10 nM
13,Cc1ccc(O)c(C)c1-n1c(N)c(C(N)=O)c2cc(Br)c(C)nc21 [Compound 187],< 10 nM
14,Cc1ccc2c(C(N)=O)c(N)n(-c3c(C)ccc(O)c3C)c2n1 [Compound 193],< 10 nM
15,"Cc1ccc(O)c(C)c1-n1c(N)c(C(N)=O)c2nc(C3(C(F)(F)F)CC3)cnc21 [Compound 198, 6-amino-5-(3-hydroxy-2,6-dimethyl-phenyl)-2-[1-(trifluoromethyl)cyclopropyl]pyrrolo[2,3-b]pyrazine-7-carboxamide]",< 10 nM
16,C=C(C)c1cnc2c(n1)c(C(N)=O)c(N)n2-c1c(C)ccc(O)c1C [Compound 202],< 10 nM
17,"Cc1ccc(O)c(C)c1-n1cc(C(N)=O)c2nc(C)c(C)nc21 [Compound 209, 5-(3-hydroxy-2,6-dimethyl-phenyl)-2,3-dimethyl-pyrrolo[2,3-b]pyrazine-7-carboxamide]",28 nM

row,SMILES,IC50
1,"Cc1ccc(O)c(C)c1-n1c(N)c(C(N)=O)c2nc(-c3nccs3)c(C#CC3CC3)nc21 [Compound 214, 6-amino-3-(2-cyclopropylethynyl)-5-(3-hydroxy-2,6-dimethyl-phenyl)-2-thiazol-2-yl-pyrrolo[2,3-b]pyrazine-7-carboxamide]",136 nM
2,Cc1ccc(O)c(C)c1-n1c(N)c(C(N)=O)c2nc(C#CCN3CCOCC3)c(C#CCN3CCOCC3)nc21 [Compound 215],24 nM
3,Cc1ccc(O)c(C)c1-n1c(N)c(C(N)=O)c2nc(-c3nccs3)c(C#CCN3CCOCC3)nc21 [Compound 216],76 nM
4,Cc1ccc(O)c(C)c1-n1c(N)c(C(N)=O)c2nc(C#CCN3CCOCC3)cnc21 [Compound 217],168 nM
5,Cc1ccc(O)c(C)c1-n1c(N)c(C(N)=O)c2ncc(C#CCN3CCOCC3)nc21 [Compound 218],22 nM
6,"Cc1ccc(O)c(C)c1-n1c(N)c(C(N)=O)c2nc(C#N)cnc21 [Compound 219, 6-amino-2-cyano-5-(3-hydroxy-2,6-dimethyl-phenyl)pyrrolo[2,3-b]pyrazine-7-carboxamide]",46 nM
7,"Cc1ccc(O)c(C)c1-n1c(N)c(C(N)=O)c2cc(C(F)(F)F)cnc21 [Compound 221, 2-amino-1-(3-hydroxy-2,6-dimethyl-phenyl)-5-(trifluoromethyl)pyrrolo[2,3-b]pyridine-3-carboxamide]",81 nM
8,Cc1ccc(O)c(C)c1-n1c(N)c(C(N)=O)c2ncc(C#CCC3CCOCC3)nc21 [Compound 222],< 10 nM
9,Cc1ccc(O)c(C)c1-n1c(N)c(C(N)=O)c2ncc(C#CC(C)(C)NS(C)(=O)=O)nc21 [Compound 223],15 nM
10,Cc1ccc(O)c(C)c1-n1c(N)c(C(N)=O)c2ncc(C#CC3CCCCO3)nc21 (stereo not shown) [Compound 224],13 nM
11,Cc1ccc(O)c(C)c1-n1c(N)c(C(N)=O)c2ncc(C#CC3CCOCC3)nc21 [Compound 225],34 nM
12,Cc1ccc(O)c(C)c1-n1c(N)c(C(N)=O)c2ncc(C#CCN(C)C)nc21 [Compound 226],12 nM
13,Cc1ccc(O)c(C)c1-n1c(N)c(C(N)=O)c2ncc(C#CC3CC3)nc21 [Compound 228],21 nM
14,Cc1ccc(O)c(C)c1-n1c(N)c(C(N)=O)c2ncc(C#CC3(O)CCOCC3)nc21 [Compound 231],< 10 nM
15,Cc1ccc(O)c(C)c1-n1c(N)c(C(N)=O)c2ncc(C#CC3(C)COC3)nc21 [Compound 232],11 nM
16,Cc1ccc(O)c(C)c1-n1c(N)c(C(N)=O)c2ncc(C#C[C@@H]3OCC[C@@H]3Cl)nc21 [Compound 233],10 nM
17,Cc1ccc(O)c(C)c1-n1c(N)c(C(N)=O)c2ncc(C#C[C@@H]3COC[C@H]3O)nc21 [Compound 234],14 nM

# Other lines, results leading:
row,IC50,SMILES
1,1420 nM,Cc1ccc(O)cc1-n1c(N)c(C(N)=O)c2nccnc21 [Compound 146]
2,1350 nM,"Cc1ccc(O)cc1-n1c(N)c(C(N)=O)c2ncc(-c3ccccc3)nc21 [Compound 150, 6-amino-5-(5-hydroxy-2-methyl-phenyl)-3-phenyl-pyrrolo[2,3-b]pyrazine-7-carboxamide]"
3,2750 nM,Cc1ccc(O)cc1-n1c(N)c(C(N)=O)c2ncc(OCc3ccccc3)nc21 [Compound 151]
4,3550 nM,"Cc1ccc(O)cc1-n1c(N)c(C(N)=O)c2ncc(OCc3cccnc3)nc21 [Compound 153, 6-amino-5-(5-hydroxy-2-methyl-phenyl)-3-(3-pyridylmethoxy)pyrrolo[2,3-b]pyrazine-7-carboxamide]"
5,6350 nM,Cc1ccc(O)cc1-n1c(N)c(C(N)=O)c2ncc(OCCN3CCOCC3)nc21 [Compound 154]
6,1020 nM,Cc1ccc(O)cc1-n1c(N)c(C(N)=O)c2ncc(-c3cn[nH]c3)nc21 [Compound 155]
7,465 nM,Cc1ccc(O)cc1-n1c(N)c(C(N)=O)c2ncc(-c3cccc(C(N)=O)c3)nc21 [Compound 156]
8,1240 nM,CC(=O)Nc1cccc(-c2cnc3c(C(N)=O)c(N)n(-c4cc(O)ccc4C)c3n2)c1 [Compound 157]
9,953 nM,Cc1ccc(O)cc1-n1c(N)c(C(N)=O)c2ncc(C#Cc3ccccn3)nc21 [Compound 158]
10,1720 nM,Cc1ccc(O)cc1-n1c(N)c(C(N)=O)c2ncc(CCc3ccccn3)nc21 [Compound 159]
11,554 nM,"Cc1ccc(O)cc1-n1c(N)c(C(N)=O)c2ncc(C#Cc3cccnc3)nc21 [Compound 160, 6-amino-5-(5-hydroxy-2-methyl-phenyl)-3-[2-(3-pyridyl)ethynyl]pyrrolo[2,3-b]pyrazine-7-carboxamide]"
12,671 nM,Cc1ccc(O)cc1-n1c(N)c(C(N)=O)c2ncc(CCCN3CCOCC3)nc21 [Compound 161]
13,596 nM,"Cc1ccc(O)cc1-n1c(N)c(C(N)=O)c2ncc(CCc3cccnc3)nc21 [Compound 162, 6-amino-5-(5-hydroxy-2-methyl-phenyl)-3-[2-(3-pyridyl)ethyl]pyrrolo[2,3-b]pyrazine-7-carboxamide]"
14,334 nM,Cc1ccc(O)cc1-n1c(N)c(C(N)=O)c2ncc(C#CCN3CCOCC3)nc21 [Compound 163]
15,361 nM,Cc1cnc2c(C(N)=O)c(N)n(-c3cc(O)ccc3C)c2n1 [Compound 167]
16,3440 nM,"Cc1ccc(O)cc1-n1c(N)c(C(N)=O)c2ncc(C(F)(F)F)cc21 [Compound 212, 2-amino-1-(5-hydroxy-2-methyl-phenyl)-6-(trifluoromethyl)pyrrolo[3,2-b]pyridine-3-carboxamide]"
17,195 nM,Cc1ccc(O)cc1-n1c(N)c(C(N)=O)c2nc(C(F)(F)F)ccc21 [Compound 213]
18,< 10 nM,"Cc1ccc(O)c(C)c1-n1c(N)c(C(N)=O)c2nc(C(N)=O)cnc21 [Compound 220, 6-amino-5-(3-hydroxy-2,6-dimethyl-phenyl)pyrrolo[2,3-b]pyrazine-2,7-dicarboxamide]"
19,50 nM,Cc1ccc(O)c(C)c1-n1c(N)c(C(N)=O)c2ncc(C#Cc3ccccn3)nc21 [Compound 227]
20,52 nM,Cc1ccc(O)c(C)c1-n1c(N)c(C(N)=O)c2ncc(C#C[C@H](C)O)nc21 [Compound 229]
21,368 nM,Cc1ccc(O)c(C)c1-n1c(N)c(C(N)=O)c2ncc(C#Cc3ccccc3)nc21 [Compound 230]
